Test results reported in US20050106270A1, “Chemical treatment of in vivo tissue to alter charge and net charge density characteristics” (priority 2003, published 2005).
Where “and” joins values, the source holds several entries; their conditions need not be identical. Identical values can stand only once.

How the values were obtained:
[1] = system: cornea of whole porcine (pig) eyes; assay: Treatment of trephined enucleated porcine eyes, inspection of corneal curvature; conditions: 50 mg/mL in 0.2M disodium phosphate pH 9.0, 1 minute, 7 mm trephined ring
Description: Whole, fresh porcine (pig) eyes were obtained from a local abattoir and immediately placed in Optisol GS preservation solution. The whole eye was placed in a holder allowing the corneal surface to be exposed. A 7 mm trephine was used to cut through the epithelium and penetrate the superficial corneal tissue. The corneal surface was then flooded with 0.2M disodium phosphate solution, pH 9.0. After 1 minute, the surface of the cornea was dried using an absorbent wipe (Kim Wipe). The corneal surface was immediately treated with 0.2M disodium phosphate solution, pH 9.0, containing 50 mg/mL of glutaric anhydride. After 1 minute of exposure, the cornea was flushed with phosphate buffered saline, pH 7.2. The surface of the cornea was inspected and the corneal curvature examined and compared to untreated eyes. […] The application of glutaric anhydride to a trephined peripheral ring of a pig cornea produced obvious flattening of the central cornea. It is believed that this technique might provide a simple, non-surgical method for treating myopia by inducing swelling in defined ring on the corneal periphery, thereby causing flattening of the central cornea.

[2] = system: cornea of enucleated porcine eyes; assay: Enucleated porcine eyes, corneal power by topographical mapping (Optikon 2000); conditions: for Post-treatment Power (D), corneal power by topographical mapping: 1 minute exposure
From the text: Eyes were procured from a local slaughterhouse, positioned in a device to stabilize the eye and subjected to topographical evaluation using the Optikon 2000 system. The corneal surface was dried using sterile gauze and then wetted with drops of buffer solution. The wetted eyes were again dried and exposed again to the same solution. Then a peripheral ring around the circumference of the corneal surface, slightly away from the limbus and the central cornea, was carefully treated by adding drops of buffer containing the active agent, a 20 mg/ml solution of glutaric anhydride. The eyes were then reexamined topographically and photos taken. Following evaluation, the eyes were placed in OptiSol for storage pending additional evaluations. Three eyes were treated using this protocol. In two eyes the active agent at 20 mg/mL was applied to a ring around the corneal periphery. The exposure width was approximately 1 mm. In one eye the active agent at 20 mg/mL was applied to a 2 mm diameter area on the apex of the central cornea. The exposure time was 1 minute. All eyes were then washed with neutral pH phosphate buffer.

articular cartilage = assay: Rabbit articular cartilage slices, stress-strain analysis and histology; conditions: 3 minutes exposure; for High Modulus Region Pa) / Low Region Modulus (Pa): 5 mg/ml in 0.02M disodium phosphate; for histological examination, control vs treated articular cartilage: 5 mg/ml
Description: Articular cartilage was dissected from both femoral and tibial chondyles of sacrificed rabbits. Cartilage slices were stored in sterile physiological saline. Eight slices of similar size (about 2 mm×2 mm) were placed in individual Eppendorf tubes. Physiological saline was replaced with 0.02M disodium phosphate at pH 8.5. […] Three specimens were treated with 0.02M disodium phosphate containing 5 mg/ml glutaric anhydride (95%). The remaining three specimens were treated with 0.02M disodium phosphate containing 5 mg/ml of acetic anhydride. Samples were exposed to control solution or acylation chemical for 3 minutes and then washed three times with sterile phosphate buffered saline (0.04M) at pH 7.2.

[3] = system: processed human skin (lyophilized dermis); assay: Acylation of processed human skin (lyophilized dermis), mechanical properties; conditions: 1 minute treatment
Description: Processed human skin was obtained for treatment. The processed skin was comprised of lyophilized dermis. Four samples were tested, two 2 cm×4 cm specimens and two 2 cm×8 cm specimens. Two sets of specimens were treated with 50 mg/mL of glutaric anhydride (dose #1) and the other two sets with 100 mg/mL of glutaric anhydride (dose #2). The rejuvenation agents were prepared in dilute buffer solution. Prior to treatment with the active agent, skin specimens were pre-treated with buffer alone. Treatments were completed in 1 minute.

[4] = system: sclera tissue of bovine eyes; assay: Softening of bovine sclera tissue, compression analysis; conditions: 100 mg/mL, 1 minute exposure
Description: Bovine eyes were procured from a local slaughterhouse and stored in Optisol solution. Whole eyes were removed from the preservation solution and the sclera dried using Kim wipes. A solution of 0.2M disodium phosphate, pH 9.5 was applied to the dried sclera tissue. The tissue was exposed to the disodium phosphate solution for 1 minute. The tissue was again dried using a Kim wipe and a solution containing 100 mg/mL of glutaric anhydride in […] was exposed to the anhydride solution for 1 minute and the tissue then thoroughly rinsed with sterile 0.02M phosphate buffer, pH 7.2. The exposed tissue was examined for tissue softening. […] Sclera tissue softening was also obvious by application of thumb pressure to treated and untreated areas of the sclera tissue. It is proposed that sclera softening using acylating agents may be used to expand sclera tissue, thereby permitting more space for the ciliary body to expand and contract the lens.

cat cornea = assay: In vivo cat model, corneal power by topographical mapping and optical examinations
Description: Two cats were treated with the active agent, glutaric anhydride. Treatment was applied to the right eye (OD) while the contra lateral eye (OS) served as a control. Buffer solution (0.02M disodium phosphate solution at pH 9.0) was first applied to the corneal surface. This was immediately followed by application of a solution of glutaric anhydride in disodium phosphate into a peripheral ring of a corneal mold placed on the corneal surface. The mold provided a tight seal to prevent migration of the active agent to the central cornea. Two treatment applications were provided at Day 1 and Day 7. The dosage of the active agent was 50 mg/mL. Eyes were examined for another 7 days following the second treatment.

dermal tissue = assay: Second experiment: stress-strain analysis of dermal tissue strips (Sample C vs Sample D, FIG. 5); set-up: species or system human; conditions: fresh 100 mg/mL anhydride solution
Description: FIG. 5 is a graph showing the stress-strain analysis of dermal tissue specimen C and dermal tissue specimen D after treating the specimens with the same acylating agent under different treatment conditions.
In a second experiment one strip (Sample C) of dermal tissue was exposed to a 100 mg/mL anhydride solution. A second strip (Sample D) was exposed to the same anhydride solution after about 2 minutes.

[5] = system: reconstituted, lyophilized human dermis; assay: Third series: reconstituted lyophilized human dermis exposed to acylation agent
From the text: In a third series of experiments, reconstituted, lyophilized human dermis samples were exposed to the acylation agents (glutaric anhydride). Again, dermal thickness increased from about 1 mm to 2 mm due to increased water binding. In addition, dermal pliability was increased as evidenced by the decreased relaxation time. It is hypothesized that the reactive agent changes the net charge distribution on collagen fibrils reducing the intensity of intrafibrillar interactions and increasing pliability. Increased water binding and pliability are characteristics associated with young skin.

## O=C1CCCC(=O)O1 [glutaric anhydride]
[1]
  central corneal surface compared to untreated eyes: clearly depressed or flattened
[2]; 20 mg/mL applied to 2 mm diameter area on apex of central cornea
  Post-treatment Power (D), corneal power by topographical mapping: 41.3 D
[2]; 20 mg/mL applied to about 1 mm wide ring around corneal periphery
  Post-treatment Power (D), corneal power by topographical mapping: 37.4 D and 40.9 D
[2]; after treatment, 20 mg/mL, 1 minute
  appearance of eyes by visual examination: appeared clear
[2]; treatment of the central cornea, 20 mg/mL
  increase of refractive power: about 0.7 diopters
[2]; treatment of the periphery of the cornea, 20 mg/mL
  reduction of corneal power: more than 2 diopters
Articular cartilage
  High Modulus Region Pa): 58.1 Pa
  Low Region Modulus (Pa): 26.7 Pa
  histological examination, control vs treated articular cartilage: no differences
[3]; dose 50 mg/mL
  Strain (%): 79%
  Stress (MPa): 2.5 MPa
  Thickness: 1.77 mm
[3]; dose 100 mg/mL
  Strain (%): 84%
  Stress (MPa): 2.7 MPa
  Thickness: 2.55 mm
[4]
  sclera tissue softening by thumb pressure, treated vs untreated areas: obvious
[4]; after 0.2M disodium phosphate pH 9.5
  low modulus by compression analysis: significant loss of low modulus
Cat cornea; 7 days following the second treatment, 50 mg/mL
  optical examinations, including slit-lamp biomicroscopy and Shiotz tonometry, treated vs control eyes: no differences
Cat cornea; right eye (OD), 50 mg/mL in peripheral ring, two applications at Day 1 and Day 7
  Average Post-treat (D), corneal power by topographical mapping: 38.88 D and 40.68 D
Dermal tissue; vs Sample D (hydrolyzed solution)
  thickness of Sample C relative to Sample D: significantly thicker
Dermal tissue; vs Sample D (same solution after about 2 minutes, hydrolyzed)
  elastic and viscous stress-strain curves: shifted to higher percent strain
[5]
  dermal pliability: increased
  relaxation time: decreased
[5]; increased from about 1 mm
  dermal thickness after treatment: ~2 mm

## CC(=O)OC(C)=O [acetic anhydride]
Articular cartilage
  High Modulus Region Pa): 47.7 Pa
  Low Region Modulus (Pa): 16.6 Pa
  histological examination, control vs treated articular cartilage: no differences
